Test results: ChEMBL document CHEMBL1201862, “PubChem BioAssay data set” (2004)
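96-well plates; 48 h exposure; 5 concentrations. Endpoints by linear interpolation between flanking doses. Not reached: highest tested concentration assigned. GI50 is the concentration that inhibits growth by half.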 Active and inactive are the calls of the source. Cut-off read from the data, not from the text of the source: active = GI50 up to about 1.1 µM and inactive = higher.

What was measured:
Assay in all cases: NCI anticancer screen, dose series, 48 h
[1] = test system: OVCAR-8
[2] = test system: MDA-MB-231
[3] = test system: OVCAR-3
[4] = test system: SW-620
[5] = test system: NCI-H23
[6] = test system: TK-10
[7] = test system: COLO 205
[8] = test system: HCT-116
[9] = test system: UACC-257
[10] = test system: OVCAR-4
[11] = test system: BT-549
[12] = test system: IGROV-1
[13] = test system: SNB-19
[14] = test system: NCI/ADR-RES
[15] = test system: MOLT-4
[16] = test system: HL-60
[17] = test system: SK-MEL-28
[18] = test system: NCI-H460
[19] = test system: MDA-MB-435
[20] = test system: RPMI-8226

Compound | GI50 [1] | GI50 [2] | GI50 [3] | GI50 [4] | GI50 [5] | GI50 [6] | GI50 [7] | GI50 [8] | GI50 [9] | GI50 [10] | GI50 [11] | GI50 [12] | GI50 [13] | GI50 [14] | GI50 [15] | GI50 [16] | GI50 [17] | GI50 [18] | GI50 [19] | GI50 [20]
CC(C)C(C/C=C1\CC(CO)(COC(=O)CC(C(C)C)C(C)C)OC1=O)C(C)C (stereo unspecified) | 17.9 µM (inactive) | 12.8 µM (inactive) | 15.6 µM (inactive) | 7.46 µM (inactive) | 15 µM (inactive) | 7.31 µM (inactive) | 1.49 µM (inactive) | 14.1 µM (inactive) | 15.6 µM (inactive) | 17.6 µM (inactive) | 14.6 µM (inactive) | 14.7 µM (inactive) | 13.3 µM (inactive) | 16 µM (inactive) | 1.05 µM (active) | 2.74 µM (inactive) | 14.9 µM (inactive) | 4.07 µM (inactive) | 7.06 µM (inactive) | 
O=C(O)c1cccc(/[As]=[As]\c2cccc(C(=O)O)c2)c1 (stereo unspecified) | 34.6 µM (inactive) | 21.6 µM (inactive) | 34.4 µM (inactive) | 32.7 µM (inactive) | 31 µM (inactive) | 23.2 µM (inactive) | 33 µM (inactive) | 36.9 µM (inactive) | 40.9 µM (inactive) | 51.9 µM (inactive) | 70.6 µM (inactive) | 34.2 µM (inactive) | 32.2 µM (inactive) | 75.7 µM (inactive) | 30.3 µM (inactive) |  | > 100 µM (inactive) | 36 µM (inactive) | 52.1 µM (inactive) | 23 µM (inactive)
CC(=O)O.CN1CCN(CN2C(=O)C3C4C=CC(C3C2=O)C2C3C(=O)N(CN5CCN(C)CC5)C(=O)C3C42)CC1 (stereo unspecified) | 27.8 µM (inactive) | 24.4 µM (inactive) | 24.3 µM (inactive) | 22.2 µM (inactive) | 20.7 µM (inactive) | 45.3 µM (inactive) | 19 µM (inactive) | 16.6 µM (inactive) |  | 21.4 µM (inactive) | 25.5 µM (inactive) | 35.5 µM (inactive) |  | 24.2 µM (inactive) | 20.2 µM (inactive) |  | 28 µM (inactive) | 16.3 µM (inactive) | 17.1 µM (inactive) | 22.2 µM (inactive)
C/C=C(/COC(C)=O)C(=O)OC1C=C(C=O)C(C)(C)C=C1C (stereo unspecified) | > 100 µM (inactive) | > 100 µM (inactive) |  | > 100 µM (inactive) | > 100 µM (inactive) | > 100 µM (inactive) | > 100 µM (inactive) | > 100 µM (inactive) | > 100 µM (inactive) | > 100 µM (inactive) | > 100 µM (inactive) | 96.6 µM (inactive) | > 100 µM (inactive) | > 100 µM (inactive) | > 10 µM (inactive) | 45.1 µM (inactive) | > 100 µM (inactive) | > 100 µM (inactive) | > 100 µM (inactive) | 
CC(C)C1=C(O)C(=O)C2=C(C1=O)C(O)CC1C(C)(C)CCCC21C (stereo unspecified) | 5.36 µM (inactive) | 2.84 µM (inactive) | 11.4 µM (inactive) | 3.52 µM (inactive) | 1.79 µM (inactive) | 14.5 µM (inactive) | 12.8 µM (inactive) | 4.26 µM (inactive) | 11.3 µM (inactive) | 14.6 µM (inactive) | 8.55 µM (inactive) | 15.8 µM (inactive) | 5.38 µM (inactive) |  | 25.8 µM (inactive) | 14.9 µM (inactive) | 13.3 µM (inactive) | 2.88 µM (inactive) | 3.4 µM (inactive) | 4.65 µM (inactive)
CC1CCN(c2nnc(Cl)cc2C(=O)c2ccccc2)CC1 | 58.7 µM (inactive) | 27.5 µM (inactive) | 22.4 µM (inactive) | 22.1 µM (inactive) | 25.5 µM (inactive) | 37.6 µM (inactive) | 21.9 µM (inactive) | 29.6 µM (inactive) | 18.7 µM (inactive) | 29.2 µM (inactive) | 30.3 µM (inactive) | 35.3 µM (inactive) | 26.9 µM (inactive) | 36.6 µM (inactive) | 20.7 µM (inactive) | 44.4 µM (inactive) | 39.3 µM (inactive) | 29.5 µM (inactive) | 21.5 µM (inactive) | 
CN(C)c1ccc(/C=C(\NC(=O)c2ccccc2)C(=O)Nc2ccccc2C(=O)NN2C(=O)CSC2c2ccc(N(C)C)cc2)cc1 (stereo unspecified) | > 100 µM (inactive) | > 100 µM (inactive) | > 100 µM (inactive) | > 100 µM (inactive) | > 100 µM (inactive) |  | > 100 µM (inactive) | > 100 µM (inactive) | 16.1 µM (inactive) |  | > 100 µM (inactive) | > 100 µM (inactive) | > 100 µM (inactive) | > 100 µM (inactive) | > 100 µM (inactive) | > 100 µM (inactive) | > 100 µM (inactive) | 10.7 µM (inactive) | 66.5 µM (inactive) | > 100 µM (inactive)
CCC(C)C(=O)OC1CC2(C)C(c3ccoc3)OC(=O)CC23OC2(C)OC34C(OC(=O)C(C)C)C3(O)C(OC(=O)C5(C)OC5C)C5(C)CC3(O)C(C)(C5CC(=O)OC)C14O2 (stereo unspecified) | 52.6 µM (inactive) | 56.2 µM (inactive) |  | 50 µM (inactive) | 54.3 µM (inactive) | 65 µM (inactive) | 20 µM (inactive) | 54.7 µM (inactive) | 79.4 µM (inactive) | 38.4 µM (inactive) | 60.7 µM (inactive) | 64.4 µM (inactive) | 32.6 µM (inactive) | 21.7 µM (inactive) | 20.7 µM (inactive) | 15.6 µM (inactive) | > 100 µM (inactive) | 36.3 µM (inactive) | 83 µM (inactive) | 
Nc1nc(N)c2c(n1)CCC(S(=O)(=O)c1ccc3ccccc3c1)C2 (stereo unspecified) | 5.26 µM (inactive) | 42.4 µM (inactive) | 10.9 µM (inactive) | 59.3 µM (inactive) | 2.53 µM (inactive) | 4.57 µM (inactive) | 8.38 µM (inactive) | 11.6 µM (inactive) | 12.5 µM (inactive) |  | 6.65 µM (inactive) |  | 3.61 µM (inactive) | 43.8 µM (inactive) | 2 µM (inactive) | 13.5 µM (inactive) | 27.7 µM (inactive) | 0.891 µM (active) | 0.714 µM (active) | 12.5 µM (inactive)
COc1ccc(C2(CC(C)C)CCNC2)cc1OC (stereo unspecified) | > 100 µM (inactive) | > 100 µM (inactive) |  | > 100 µM (inactive) | 78.2 µM (inactive) | > 100 µM (inactive) | > 100 µM (inactive) | > 100 µM (inactive) | > 100 µM (inactive) | > 100 µM (inactive) | > 100 µM (inactive) | 26.5 µM (inactive) | > 100 µM (inactive) | > 100 µM (inactive) |  | > 100 µM (inactive) | > 100 µM (inactive) | > 100 µM (inactive) | > 100 µM (inactive) | 61.1 µM (inactive)
C=C[C@@]1(C)CC(=O)[C@]2(O)[C@@]3(C)[C@@H](OC(C)=O)CCC(C)(C)[C@@H]3[C@H](O)[C@H](OC(C)=O)[C@@]2(C)O1 | > 100 µM (inactive) | > 100 µM (inactive) | > 100 µM (inactive) | > 100 µM (inactive) | > 100 µM (inactive) |  |  | > 100 µM (inactive) | > 100 µM (inactive) | > 100 µM (inactive) | > 100 µM (inactive) | > 100 µM (inactive) | > 100 µM (inactive) | > 100 µM (inactive) | > 100 µM (inactive) |  | > 100 µM (inactive) | > 100 µM (inactive) | > 100 µM (inactive) | 
O=C1c2ccccc2-c2ccc(/N=N/c3c(O)ccc4ccccc34)cc21 | > 100 µM (inactive) | > 100 µM (inactive) | > 100 µM (inactive) | > 100 µM (inactive) | > 100 µM (inactive) | > 100 µM (inactive) | > 100 µM (inactive) | > 100 µM (inactive) | > 100 µM (inactive) | > 100 µM (inactive) | > 100 µM (inactive) | > 100 µM (inactive) | > 100 µM (inactive) | > 100 µM (inactive) | 41.8 µM (inactive) |  | > 100 µM (inactive) |  | 33.6 µM (inactive) | > 100 µM (inactive)
COc1ccc(C)c2c1N[C@](C)([C@]1(C)Nc3c(OC)ccc(C)c3C1=O)C2=O | 49.4 µM (inactive) | > 100 µM (inactive) | > 100 µM (inactive) | > 100 µM (inactive) | > 100 µM (inactive) |  | > 100 µM (inactive) | > 100 µM (inactive) | > 100 µM (inactive) | > 100 µM (inactive) | > 100 µM (inactive) | > 100 µM (inactive) | 68.9 µM (inactive) | > 100 µM (inactive) | > 100 µM (inactive) |  | > 100 µM (inactive) | > 100 µM (inactive) | 44.7 µM (inactive) | > 100 µM (inactive)
O=c1c(-c2ccc3c(c2)OCO3)coc2c3c(ccc12)OCO3 |  | 21.5 µM (inactive) | 28.5 µM (inactive) | 39.7 µM (inactive) | 19.2 µM (inactive) | 19.1 µM (inactive) | > 100 µM (inactive) | 33 µM (inactive) | 53.1 µM (inactive) | 24.8 µM (inactive) | 15.6 µM (inactive) | 20.8 µM (inactive) | 21.4 µM (inactive) |  | > 100 µM (inactive) | > 100 µM (inactive) | 24.3 µM (inactive) | 17.2 µM (inactive) | > 100 µM (inactive) | > 100 µM (inactive)
Cc1ccc2c(O)cc(-c3cccc4ccccc34)nc2n1 | 0.032 µM (active) | 0.0522 µM (active) | < 0.0149 µM (active) | 0.0203 µM (active) | 0.0352 µM (active) |  | 0.022 µM (active) | < 0.0151 µM (active) |  | 0.495 µM (active) | 0.652 µM (active) | 0.0627 µM (active) | 0.0445 µM (active) | 0.0186 µM (active) | 0.0698 µM (active) | < 0.01 µM (active) | 0.016 µM (active) | 0.0342 µM (active) | < 0.01 µM (active) | 0.0227 µM (active)
